According to US10383848B2, “Indole-based therapeutics” (Creighton University, priority 2016, dated 2019):
≈ marks a conversion by molar mass, not a printed value. Read-outs that look alike come from different tables or passages of the source.

Assays:
M. abscessus ATCC 19977 = assay: MIC, resazurin microtiter assay; type: cell-based; conditions: Mycobacteroides abscessus
M. smegmatis mc^2155 = assay: MIC, resazurin microtiter assay; type: cell-based; conditions: Mycolicibacterium smegmatis
[1] = test system: M. massiliense CIP 108297; assay: MIC, resazurin microtiter assay; type: cell-based; conditions: Mycobacteroides abscessus
M. abscessus 103 [2] = assay: MIC/MBC by microbroth dilution (MH or 7H9 broth); type: cell-based, M. abscessus subsp. bolletii
M. abscessus DCI #21 = assay: MIC, resazurin microtiter assay; type: cell-based; conditions: for MIC: Mycobacteroides abscessus, read-out: MIC M. abscessus DCI #21
M. xenopi WT = assay: MIC, resazurin microtiter assay; type: cell-based; conditions: Mycobacterium xenopi, read-out: MIC M. xenopi WT
M. intracellulare 1956 = assay: MIC, resazurin microtiter assay; type: cell-based; conditions: read-out: MIC M. avium Intracellulare 1956
M. abscessus 103 [3] = assay: Acute SCID mouse infection efficacy model; conditions: for log10 CFU liver counts on day 12 / log10 CFU spleen counts on day 12: SCID mice i.v. infected with M. abscessus 103, compounds 300 mg/kg PO in 20% cyclodextrin, AMI 150 mg/kg SQ, once daily 8 days
M. bolletii ATCC 14472 = assay: MIC, resazurin microtiter assay; type: cell-based; conditions: for MIC: Mycobacteroides abscessus
THP-1 cells = assay: Cytotoxicity assay, THP-1 cell viability (CellTiter-Glo); type: cell-based, human; conditions: 3 days
Description: The cytotoxicity of compounds was determined by measuring THP-1 cell viability after 3 days in the presence of test compounds. Compounds were prepared as 10-point serial dilutions in DMSO. The highest concentration of compound tested was 50 μM where compounds were soluble in DMSO at 10 mM. THP-1 cells were cultured in complete RPMI and differentiated into macrophage-like cells using 80 nM PMA overnight at 37° C., 5% CO2. Cells were inoculated into assay plates and cultured for 24 h before compound dilutions were added to a final DMSO concentration of 0.5%. Each run included staurosporine as a control. Assay plates were incubated for 3 days at 37° C., 5% CO2, growth was measured using the CellTiter-Glo® Luminescent Cell Viability Assay (Promega) which uses ATP as an indicator of cell viability. Relative luminescent units (RLU) were measured using a Biotek Synergy 4 plate reader. The dose response curve was fitted using the Levenberg-Marquardt algorithm.

M. avium 104 = assay: MIC, resazurin microtiter assay; type: cell-based; conditions: Mycobacterium avium, 104, read-out: MIC M. avium 104
[4] = In vivo acute toxicity assay (Maximum Tolerated Dose); set-up: species or system Balb/C mice; conditions: 100, 200 and 300 mg/kg for 3 consecutive days of dosing, gavage, mice
Description: 6-8 week old Balb/C female mice were ordered from Charles River. Mice were rested one to two weeks before dosing. For each dose of compound, 3 mice were utilized. […] Compound was given twice per day for 3 consecutive days by gavage, at 100 μl/mouse. Compounds were prepared the day before or the day of dosing and stored at 4° C. until dosing. The time of dosing was recorded for each mouse. Observations were recorded immediately, at 10 min, 1 hour, 2 hours, 4 hours, and 24 hours after dosing. […] Mice were dosed for three days and on the fourth day mice were observed twice daily for two days, then once daily for five days.
As an initial in vivo study, the safety of compounds and preliminary pharmacokinetics was assessed in an acute toxicity mouse model (Maximum Tolerated Dose assay, MTD) to evaluate any potential adverse effects and determine a safe dose for mouse efficacy studies. Compounds were tested to ensure safe use in healthy mice prior to any further in vivo testing. […] Novel compounds were generally administered to mice at 40, 75 and 100 mg/kg in a tested formulation, administered on three consecutive days, 3 mice per dose group, in the chosen formulation. […] Mice were observed 10 min, 1, 2, 4 hours after dosing and then daily afterwards. During the observations, humane handling practices and animal welfare regulations were strictly followed. […]

[5] = test system: M. tuberculosis H37Rv mc^26206; assay: microbe, parasite or virus in culture; type: cell-based; conditions: for Selectivity Index (TD50/MIC) M. tb H37Rv: TD50 in THP-1 cells
S. aureus ATCC25923 = assay: MIC, resazurin microtiter assay; type: cell-based; conditions: Staphylococcus aureus
M. abscessus 1513 = assay: MIC/MBC by microbroth dilution (MH or 7H9 broth); type: cell-based, M. abscessus subsp. abscessus
[6] = test system: M. massiliense strain 1513; assay: Metabolic labeling and mycolic acid analysis; conditions: 4x and 10x MIC, 16 hr, [1,2-14C]acetate labeling, TLC
Description: Cultures of M. massiliense 1513 grown to mid log-phase in Mueller-Hinton II broth were incubated with different concentrations of inhibitors for 16 hr at 37° C. with shaking. 0.5 μCi/mL [1,2-^14C]acetic acid (specific activity, 52 Ci/mol, PerkinElmer Inc.) was added at the same time as the inhibitors. Total lipids and cell wall-bound mycolic acid methyl esters were prepared from treated and untreated cells and analyzed by TLC as described in Grzegorzewicz et al, Nature Chemical Biology, 2012, 8:334+341.

P. aeruginosa PAO-1 = assay: MIC, resazurin microtiter assay; type: cell-based, Pseudomonas aeruginosa; conditions: for MIC: Pseudomonas aeruginosa
M. chelonae ATCC 35752 = assay: MIC, resazurin microtiter assay; type: cell-based; conditions: Mycobacteroides chelonae
M. massiliense CRM 0019 = assay: MIC, resazurin microtiter assay; type: cell-based; conditions: for MIC: Mycobacteroides abscessus
[7] = Dose response pharmacokinetics, plasma concentration by LC-MS/MS; type: in vivo, BALB/c mice; conditions: single oral dose 100 and 200 mg kg^-1, 2 and 4 h, mice
Description: P.O. dosing at 100, 200 and 300 mg kg^−1 was administered; after administration, blood was collected at 2 and 4 hour time points for quantification. Plasma concentration of the compounds 5 and 25 was determined using liquid chromatography tandem mass spectrometry. Data are presented as mean±SD.
Female BALB/c mice were given a dose of compounds 5 or 25 at 100, 200 and 300 mg kg′ by oral gavage in a volume of 0.2 mL. At 2 and 4 hours after compound administration, animals were euthanized and cardiac blood (approximately 0.7 mL) was collected. Plasma was separated using centrifugation at 12,000 g for 20 min at 4° C. and stored at […]. Concentrations of compounds 5 and 25 in plasma were analyzed with LC-tandem MS (LC-MS/MS, AB SCIEX QTRAP 5500 system) with warfarin as internal standard. MS detection of mass transitions 295.2/135.2 (Compound 5), 299.2/146.1 (Compound 25) and 309.1/163.0 (Warfarin) was carried out. Concentration calculation was performed with MultiQuant Software (Version 2.1, AB SCIEX). The pharmacokinetic profile of the test compound was analyzed from plasma concentration-time data after oral administration.

mycobacteria = assay: organism not typed; type: cell-based; conditions: lowest concentration reducing CFU by 90% relative to the inoculum; strain not stated; read-out: MBC90
panel of mycobacteria = assay: MIC against a panel of mycobacteria (summary ranges); type: cell-based; conditions: M. avium and M. xenopi strains of Table 3
M. abscessus 103 [8] = conditions: mouse, in vivo, 300 mg/kg
[9] = infected SCID mice, daily 300 mg/kg in 20% cyclodextrin

## O=C(NC12CC3CC(CC(C3)C1)C2)c1cc2ccccc2[nH]1 [Compound 5, N-(1-adamantyl)-1H-indole-2-carboxamide]
M. abscessus ATCC 19977; ATCC19977, read-out: MIC M. abscessus ATCC 19977
  MIC: 0.25 µg/mL (≈ 0.849 µM)
M. smegmatis mc^2155; MC^2155, read-out: MIC M. smeg. mc^2155
  MIC: 1.56 µg/mL (≈ 5.3 µM)
[1]; CIP108297, read-out: MIC M. massiliense CIP 108297
  MIC: 0.5 µg/mL (≈ 1.7 µM)
M. abscessus 103 [2]; Mycobacteroides abscessus, 103, read-out: MIC M. abscessus 103, 7H9 Broth
  MIC: > 64 µg/mL
M. abscessus 103 [2]; Mycobacteroides abscessus, 103, read-out: MIC M. abscessus 103, MH Broth
  MIC: 16 µg/mL (≈ 54.3 µM)
M. abscessus DCI #21
  MIC: 0.25 µg/mL (≈ 0.849 µM)
M. abscessus DCI #21; TD50 in THP-1 cells
  Selectivity Index (TD50/MIC) M. abscessus DCI #21: >58
M. xenopi WT
  MIC: 0.5 to 1 µg/mL (≈ 1.7 to 3.4 µM)
M. intracellulare 1956
  MIC: 8 µg/mL (≈ 27.2 µM)
M. abscessus 103 [3]
  log10 CFU liver counts on day 12: 5.30±0.23 log10 CFU
  log10 CFU spleen counts on day 12: 3.79±0.40 log10 CFU
M. abscessus 103 [3]; [9]
  Survival until the Day 12 endpoint: all animals survived
  Weight loss: didn't demonstrate any significant weight loss
M. bolletii ATCC 14472; ATCC14472, read-out: MIC M. bolletii ATCC 14472
  MIC: 0.25 µg/mL (≈ 0.849 µM)
M. bolletii ATCC 14472; TD50 in THP-1 cells
  Selectivity Index (TD50/MIC) M. bolletii: >58
THP-1 cells
  TD50: >14.7 µg/mL
M. avium 104
  MIC: 8 µg/mL (≈ 27.2 µM)
[4]
  Tolerability (acute toxicity, MTD): well tolerated
[5]; Mycobacterium tuberculosis, H37RV, read-out: MIC M. tb H37 Rv (mc2-6206)
  MIC: 0.2 µg/mL (≈ 0.679 µM)
[5]
  Selectivity Index (TD50/MIC) M. tb H37Rv: >73
S. aureus ATCC25923; ATCC25923, read-out: MIC S. aureus ATCC25923
  MIC: > 160 µg/mL
M. abscessus 1513; Mycobacteroides abscessus, 1513, read-out: MIC M. abscessus 1513, 7H9 Broth
  MIC: > 64 µg/mL
M. abscessus 1513; Mycobacteroides abscessus, 1513, read-out: MIC M. abscessus 1513, MH Broth
  MIC: 32 µg/mL (≈ 109 µM)
[6]
  TMM build-up and mycolic acid transfer onto arabinogalactan and TDM: concentration-dependent build-up of TMM
P. aeruginosa PAO-1; Mueller Hinton II
  MIC P. aeruginosa PAO-1: inactive
P. aeruginosa PAO-1; PAO1, read-out: MIC P. aeruginosa PAO-1
  MIC: > 160 µg/mL
M. chelonae ATCC 35752; ATCC35752, read-out: MIC M. chelonae ATCC 35752
  MIC: 0.25 µg/mL (≈ 0.849 µM)
M. massiliense CRM 0019; CRM0019, read-out: MIC M. massiliense CRM 0019
  MIC: 0.25 µg/mL (≈ 0.849 µM)
M. massiliense CRM 0019; TD50 in THP-1 cells
  Selectivity Index (TD50/MIC) M. Massiliense CRM0019: >58

## Cc1cc(C)c2cc(C(=O)NC3CCCCCCC3)[nH]c2c1 [Compound 25, N-cyclooctyl-4,6-dimethyl-1H-indole-2-carboxamide]
M. abscessus ATCC 19977; ATCC19977, Mueller Hinton II, read-out: MIC M. abscessus ATCC 19977
  MIC: 0.063 µg/mL (≈ 0.211 µM)
M. smegmatis mc^2155; MC^2155, 7H9-ADC-0.05% Tween 80, read-out: MIC M. smeg. mc^2155
  MIC: 0.313 to 0.625 µg/mL (≈ 1.05 to 2.09 µM)
[1]; CIP108297, Mueller Hinton II, read-out: MIC M. massiliense CIP 108297
  MIC: 0.031 µg/mL (≈ 0.104 µM)
M. abscessus 103 [2]; Mycobacteroides abscessus, 103; MH broth; read-out: MBC99 M. abscessus subsp. bolletii 103
  MBC: 64 µg/mL (≈ 214 µM)
M. abscessus 103 [2]; Mycobacteroides abscessus, 103; read-out: MIC M. abscessus 103, 7H9 Broth
  MIC: > 64 µg/mL
M. abscessus 103 [2]; Mycobacteroides abscessus, 103; read-out: MIC M. abscessus 103, MH Broth
  MIC: 16 µg/mL (≈ 53.6 µM)
M. abscessus DCI #21; Mueller Hinton II
  MIC: 0.0078 µg/mL (≈ 0.0261 µM)
M. xenopi WT; Mueller Hinton II
  MIC: 0.25 µg/mL (≈ 0.838 µM)
M. intracellulare 1956; Mueller Hinton II
  MIC: 1 µg/mL (≈ 3.35 µM)
M. abscessus 103 [3]
  log10 CFU liver counts on day 12: 4.90±0.49 log10 CFU
  log10 CFU spleen counts on day 12: 2.91±0.45 log10 CFU
M. bolletii ATCC 14472; ATCC14472, Mueller Hinton II, read-out: MIC M. bolletii ATCC 14472
  MIC: 0.0039 µg/mL (≈ 0.0131 µM)
THP-1 cells
  TD50: >14.9 µg/mL
[7]
  Blood concentration compared to compound 5: lower blood concentration
[4]
  Tolerability (acute toxicity, MTD): well tolerated
mycobacteria
  MBC: 0.015 µg/mL (≈ 0.0503 µM)
[5]
  Selectivity Index (TD50/MIC) M. tb H37Rv: >764
Panel of mycobacteria
  MIC range in MAC panel: 0.25 to 1 µg/mL
S. aureus ATCC25923; ATCC25923, Mueller Hinton II, read-out: MIC S. aureus ATCC25923
  MIC: > 160 µg/mL
M. abscessus 1513; Mycobacteroides abscessus, 1513; MH broth; read-out: MBC99 M. abscessus subsp. abscessus 1513
  MBC: 64 µg/mL (≈ 214 µM)
M. abscessus 1513; Mycobacteroides abscessus, 1513; read-out: MIC M. abscessus 1513, 7H9 Broth
  MIC: > 64 µg/mL
M. abscessus 1513; Mycobacteroides abscessus, 1513; read-out: MIC M. abscessus 1513, MH Broth
  MIC: 16 µg/mL (≈ 53.6 µM)
[6]
  TMM build-up and mycolic acid transfer onto arabinogalactan and TDM: concentration-dependent build-up of TMM
P. aeruginosa PAO-1; Mueller Hinton II
  MIC P. aeruginosa PAO-1: inactive
P. aeruginosa PAO-1; PAO1, Mueller Hinton II, read-out: MIC P. aeruginosa PAO-1
  MIC: > 160 µg/mL
M. abscessus 103 [8]
  Survival until the Day 12 endpoint: all animals survived
  Weight loss: didn't demonstrate any significant weight loss
M. chelonae ATCC 35752; ATCC35752, Mueller Hinton II, read-out: MIC M. chelonae ATCC 35752
  MIC: 0.063 µg/mL (≈ 0.211 µM)
M. massiliense CRM 0019; CRM0019, Mueller Hinton II, read-out: MIC M. massiliense CRM 0019
  MIC: 0.0078 µg/mL (≈ 0.0261 µM)
